Laboratory results from PMC9532399, “The lysosomal transporter TAPL has a dual role as peptide translocator and phosphatidylserine floppase” (Nature Communications, 2022).
Changes are numbered by the printed parent chain. Residues, ends and D or L forms follow the SMILES beside them. *: point of attachment. X1 = CC[N+]1=C(C=CC=CC=C2N(CCCCCC(=O)NCCN3C(=O)CC(*)C3=O)c3ccc(S(=O)(=O)[O-])cc3C2(C)C)C(C)(C)c2cc(S(=O)(=O)O)ccc21

Columns and labels:
[1] = molecular target: T1, mouse TAPL ΔTMD0 (Mus musculus, UniProt Q9JJ59); assay: NADH-coupled ATPase assay, nanodisc-reconstituted ΔTMD0; type: biochemical; details: POPE nanodiscs, data not shown
T1 construct: thrombin cleavage site (C); eGFP (C); 10XHis (C); made in house; host or cells: Trichoplusia ni High Five (Hi5) insect cells, baculovirus (pVL1393)
T1 sequence (Q9JJ59 143-762): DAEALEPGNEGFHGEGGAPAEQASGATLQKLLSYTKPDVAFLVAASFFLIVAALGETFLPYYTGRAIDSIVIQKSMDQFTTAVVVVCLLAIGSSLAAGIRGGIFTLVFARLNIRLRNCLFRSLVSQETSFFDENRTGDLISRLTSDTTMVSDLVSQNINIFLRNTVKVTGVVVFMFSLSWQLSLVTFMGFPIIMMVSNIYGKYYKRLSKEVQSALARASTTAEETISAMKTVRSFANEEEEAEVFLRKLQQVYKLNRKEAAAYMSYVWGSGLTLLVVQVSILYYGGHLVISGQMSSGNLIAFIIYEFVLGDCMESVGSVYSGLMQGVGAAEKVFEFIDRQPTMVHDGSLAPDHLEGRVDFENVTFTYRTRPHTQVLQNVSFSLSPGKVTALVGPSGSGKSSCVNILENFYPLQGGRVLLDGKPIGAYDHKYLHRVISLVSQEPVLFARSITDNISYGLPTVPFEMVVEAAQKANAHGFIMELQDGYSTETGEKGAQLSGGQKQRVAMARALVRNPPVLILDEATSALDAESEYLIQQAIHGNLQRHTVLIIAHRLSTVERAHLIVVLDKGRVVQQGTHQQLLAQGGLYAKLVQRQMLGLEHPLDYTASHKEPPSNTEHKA
Description: […] Each lipid was dissolved in 0.17% (w/v) DM and 0.017% (w/v) CHS and mixed with MSP1 and DM/CHS-purified ΔTMD0 at a molar ratio of 150:4:1. After incubation on ice for 10 min, the mixture was treated with 60 mg of Bio-beads (Bio-Rad) at 4 °C for 4 h to remove detergent. The supernatant was additionally incubated overnight with 120 mg of fresh Bio-Beads at 4 °C. The final supernatant was injected onto a Superdex 200 Increase 10/300 GL column equilibrated with a buffer of 20 mM HEPES–NaOH pH 7.5 and 200 mM NaCl. The elution fractions containing protein-loaded nanodiscs were pooled and used for cryo-EM and functional analyses.
The ATPase activities of proteins obtained after various purification procedures were determined by NADH-coupled spectrophotometric assays. 10 μg of DM-purified or nanodisc-reconstituted protein was added to 140 μL of reaction buffer containing 50 mM HEPES–KOH pH 8.0, 60 μg/mL pyruvate kinase (Roche), 16 μg/mL lactate dehydrogenase (Roche), 10 mM phosphoenolpyruvate (Roche), 0.3 mM NADH, 3 mM ATP, 10 mM MgCl2, and 0.17% (w/v) DM in the presence or absence of 250 μM peptide. […] ATP hydrolysis activity was monitored at 37 °C for 3 min by measuring the rate of decline of NADH absorbance at 340 nm. […] The kinetic parameters of ATP hydrolysis were calculated by fitting the initial rates of ATP hydrolysis to the Michaelis–Menten equation using PRISM 4.0 (GraphPad software).

[2] = Aggregation in ATPase reaction buffer; type: physicochemical; details: addition to the ATPase reaction buffer, data not shown
Description: The ATPase activities of proteins obtained after various purification procedures were determined by NADH-coupled spectrophotometric assays. 10 μg of DM-purified or nanodisc-reconstituted protein was added to 140 μL of reaction buffer containing 50 mM HEPES–KOH pH 8.0, 60 μg/mL pyruvate kinase (Roche), 16 μg/mL lactate dehydrogenase (Roche), 10 mM phosphoenolpyruvate (Roche), 0.3 mM NADH, 3 mM ATP, 10 mM MgCl2, and 0.17% (w/v) DM in the presence or absence of 250 μM peptide. For proteins reconstituted into nanodiscs, DM was not added to the reaction buffer. For lipid-stimulated ATPase assays, the thin film of lipids was hydrated in 100 μL of buffer containing 50 mM HEPES–KOH pH 8.0 and 10 mM MgCl2 to yield a 10 mM solution. After sonication of the lipid solution for 10 min to decrease its turbidity, the reaction was initiated by adding varying concentrations of lipids to the mixture. ATP hydrolysis activity was monitored at 37 °C for 3 min by measuring the rate of decline of NADH absorbance at 340 nm. To inhibit ATP hydrolysis, the reaction mixture was incubated with 3 mM AMP-PNP or 8 mM NaF/2 mM BeSO4 for 5 min at RT. The kinetic parameters of ATP hydrolysis were calculated by fitting the initial rates of ATP hydrolysis to the Michaelis–Menten equation using PRISM 4.0 (GraphPad software).

[3] = molecular target: T2, TAPL Y405A mutant (Mus musculus, UniProt Q9JJ59, Y405A); assay: Microscale thermophoresis, DM-purified Y405A; type: binding; details: Y405A vs wild-type
T2 construct: thrombin cleavage site (C); eGFP (C); 10XHis (C); made in house; host or cells: Trichoplusia ni High Five (Hi5) insect cells, baculovirus (pVL1393)
T2 sequence (Q9JJ59 143-762 Y405A): T1 sequence (Q9JJ59 143-762) with Y263A
Description: Binding of 9-mer peptide (RRYQNSTC^Cy-5L) to DM-purified ΔTMD0 was monitored by microscale thermophoresis as described previously. Briefly, 9-mer peptide was incubated with a 10x molar excess of Cy5 dye (Thermo Fisher Scientific) in 50 mM HEPES–NaOH pH 7.5 at RT for 2 h. The labeled peptide was purified from the excess dye with a desalting column. Cy5-labeled peptide (0.2 μM) was added to serial 2-fold dilutions of protein. The mixtures were incubated for 10 min at RT and loaded onto Monolith NT.115 standard-treated capillaries (NanoTemper Technologies). Thermophoretic movements were induced by infrared laser activation. Subsequent fluorescence changes were monitored with a Monolith NT.115 pico device and plotted against protein concentration. The results were analyzed with MO.Affinity Analysis software.

[4] = parameters: method as in PMID 11867457; details: cited from earlier work

CCCCCCCC/C=C\CCCCCCCC(=O)O[C@H](COC(=O)CCCCCCCCCCCCCCC)COP(=O)(O)OCCN [POPE, 1-palmitoyl-2-oleoyl-sn-glycero-3-phosphoethanolamine]
ΔTMD0 ATPase activity in nanodiscs [1]: no ΔTMD0 activity was detected | aggregation [2]: caused nonspecific aggregation

CC[N+]1=C(C=CC=CC=C2N(CCCCCC(=O)NCCN3C(=O)CC(SC[C@H](NC(=O)[C@@H](NC(=O)[C@H](CO)NC(=O)[C@H](CC(N)=O)NC(=O)[C@H](CCC(N)=O)NC(=O)[C@H](Cc4ccc(O)cc4)NC(=O)[C@H](CCCNC(=N)N)NC(=O)[C@@H](N)CCCNC(=N)N)[C@@H](C)O)C(=O)N[C@@H](CC(C)C)C(=O)O)C3=O)c3ccc(S(=O)(=O)[O-])cc3C2(C)C)C(C)(C)c2cc(S(=O)(=O)O)ccc21 (stereo partly drawn) [RRYQNSTC^Cy-5L] (H-RRYQNSTC(X1)L-OH; N-terminus and C-terminus assumed)
decrease in peptide affinity [3]: 73 fold

CC(C)CCC[C@@H](C)[C@H]1CC[C@H]2[C@@H]3CC=C4C[C@@H](O)CC[C@]4(C)[C@H]3CC[C@]12C [cholesterol]
time of spontaneous movement across the liposome bilayer [4]: < 1 min
